“And” between values parts separate entries of the source, which are not always exact repeats. Equal entries are not always repeated. The source made the active and inactive calls.
Assays:
[1] = molecular target: T1, Replicative DNA helicase DnaB (Mycobacterium tuberculosis, UniProt P9WMR3); test: DnaB intein splicing inhibitors, dose response, biochemical, cell-free fluorescence (AID 449749); format: functional
T1 sequence (P9WMR3 whole entry): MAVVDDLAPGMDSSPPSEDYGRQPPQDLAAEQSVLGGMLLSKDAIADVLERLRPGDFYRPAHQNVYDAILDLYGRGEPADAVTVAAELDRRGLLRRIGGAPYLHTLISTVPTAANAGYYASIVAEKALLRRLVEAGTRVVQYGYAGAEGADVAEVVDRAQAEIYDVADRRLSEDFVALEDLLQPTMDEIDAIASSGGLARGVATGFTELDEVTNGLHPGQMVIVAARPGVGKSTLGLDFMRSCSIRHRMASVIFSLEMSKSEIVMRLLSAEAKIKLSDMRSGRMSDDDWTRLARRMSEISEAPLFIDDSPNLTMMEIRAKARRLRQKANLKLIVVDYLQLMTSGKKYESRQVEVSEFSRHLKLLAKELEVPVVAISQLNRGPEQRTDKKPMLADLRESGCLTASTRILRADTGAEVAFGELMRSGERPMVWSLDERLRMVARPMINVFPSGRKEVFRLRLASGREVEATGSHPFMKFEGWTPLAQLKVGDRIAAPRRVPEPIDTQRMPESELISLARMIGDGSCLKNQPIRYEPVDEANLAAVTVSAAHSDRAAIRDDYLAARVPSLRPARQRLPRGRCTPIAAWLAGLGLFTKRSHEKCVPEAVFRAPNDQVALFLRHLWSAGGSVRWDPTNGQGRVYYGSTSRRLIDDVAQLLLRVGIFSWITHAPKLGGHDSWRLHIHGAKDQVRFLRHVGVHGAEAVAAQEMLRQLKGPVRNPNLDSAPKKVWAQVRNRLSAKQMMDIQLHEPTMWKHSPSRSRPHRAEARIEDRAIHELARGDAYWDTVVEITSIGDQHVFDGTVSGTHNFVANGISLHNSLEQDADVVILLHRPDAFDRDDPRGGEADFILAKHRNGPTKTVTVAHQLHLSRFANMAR

[2] = molecular target: T2, Heat shock factor protein 1 (Mus musculus, UniProt P38532); test: HSF1 potentiators in luciferase reporter cells, confirmation, cell-based, NIH3T3, luminescence, dose retest (AID 435004); format: functional;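 also: stress induced by proteasome inhibitor MG132 added 30 min after compound; luciferase reporter driven by HSF1 response element in NIH3T3 cells; actives raise luminescence as potentiators of the MG132 stress response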
T2 sequence (P38532 whole entry): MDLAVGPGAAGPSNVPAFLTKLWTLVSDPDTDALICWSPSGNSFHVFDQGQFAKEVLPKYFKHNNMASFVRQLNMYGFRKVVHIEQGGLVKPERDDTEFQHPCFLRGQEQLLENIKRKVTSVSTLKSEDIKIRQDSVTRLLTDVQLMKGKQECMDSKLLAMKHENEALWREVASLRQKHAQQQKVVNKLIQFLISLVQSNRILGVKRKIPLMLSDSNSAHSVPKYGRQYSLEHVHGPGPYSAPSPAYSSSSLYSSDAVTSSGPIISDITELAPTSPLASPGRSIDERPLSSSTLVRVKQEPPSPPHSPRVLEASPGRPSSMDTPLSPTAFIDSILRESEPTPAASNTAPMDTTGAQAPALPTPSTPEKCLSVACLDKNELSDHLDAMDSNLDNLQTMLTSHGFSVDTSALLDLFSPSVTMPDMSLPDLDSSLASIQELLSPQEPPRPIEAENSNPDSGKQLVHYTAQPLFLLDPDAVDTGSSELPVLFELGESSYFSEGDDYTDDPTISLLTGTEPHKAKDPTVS

Aspartyl aminopeptidase = Aspartyl aminopeptidase (Plasmodium falciparum 3D7, UniProt Q8I2J3); test: Counterscreen for inhibitors of M1 and M17 aminopeptidases: QFRET-based biochemical high throughput dose response assay for inhibitors of the Plasmodium falciparum M18 Aspartyl Aminopeptidase (PFM18AAP). [Related PubChem assays: 1619 (Screening assay (M17LAP inhibitors).), 1445 (Screening assay (M1AAP inhibitors).)]
Protein RecA = molecular target: T3, Protein RecA (Mycobacterium tuberculosis, UniProt P9WHJ3); test: Fluorescence Cell-Free Homogeneous Dose Retest to Identify Inhibitors of RecA-Intein Splicing Activity. [Related pubchem assays (depositor defined):AID2097, AID2223, AID489010, AID492950]; format: functional
T3 sequence (P9WHJ3 whole entry): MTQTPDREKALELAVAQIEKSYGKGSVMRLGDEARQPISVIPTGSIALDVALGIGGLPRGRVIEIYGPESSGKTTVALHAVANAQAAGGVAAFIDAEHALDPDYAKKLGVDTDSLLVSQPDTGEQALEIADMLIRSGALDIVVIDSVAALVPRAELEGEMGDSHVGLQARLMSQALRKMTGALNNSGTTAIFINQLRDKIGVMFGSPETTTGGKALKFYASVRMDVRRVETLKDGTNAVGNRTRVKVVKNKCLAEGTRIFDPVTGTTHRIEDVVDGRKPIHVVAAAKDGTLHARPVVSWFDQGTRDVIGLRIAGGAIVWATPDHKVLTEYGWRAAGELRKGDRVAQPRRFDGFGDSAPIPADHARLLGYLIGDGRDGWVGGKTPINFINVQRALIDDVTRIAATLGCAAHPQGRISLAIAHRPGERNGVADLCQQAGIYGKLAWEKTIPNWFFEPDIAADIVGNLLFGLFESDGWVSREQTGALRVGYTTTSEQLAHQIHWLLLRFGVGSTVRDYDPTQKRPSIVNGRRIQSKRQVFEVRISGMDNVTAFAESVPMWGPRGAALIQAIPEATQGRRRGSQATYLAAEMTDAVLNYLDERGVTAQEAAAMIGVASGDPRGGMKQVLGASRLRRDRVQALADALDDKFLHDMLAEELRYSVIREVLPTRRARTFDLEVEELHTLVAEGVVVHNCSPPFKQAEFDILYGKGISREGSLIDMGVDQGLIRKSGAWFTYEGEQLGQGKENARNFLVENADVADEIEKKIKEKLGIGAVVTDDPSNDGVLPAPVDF

Procathepsin L = Procathepsin L (Homo sapiens, UniProt P07711); test: cathepsin L inhibitors, dose response, counter-screen for M1/M17 aminopeptidase inhibitor project, biochemical, QFRET, 1536-well (AID 2214)
Leucine aminopeptidase = molecular target: T4, Leucine aminopeptidase (Plasmodium falciparum 3D7, UniProt Q8IL11); test: P. falciparum M17LAP inhibitors, primary screen, biochemical, fluorogenic H-Leu-NHMec substrate, 1536-well (AID 1619); format: functional
T4 sequence (Q8IL11 whole entry): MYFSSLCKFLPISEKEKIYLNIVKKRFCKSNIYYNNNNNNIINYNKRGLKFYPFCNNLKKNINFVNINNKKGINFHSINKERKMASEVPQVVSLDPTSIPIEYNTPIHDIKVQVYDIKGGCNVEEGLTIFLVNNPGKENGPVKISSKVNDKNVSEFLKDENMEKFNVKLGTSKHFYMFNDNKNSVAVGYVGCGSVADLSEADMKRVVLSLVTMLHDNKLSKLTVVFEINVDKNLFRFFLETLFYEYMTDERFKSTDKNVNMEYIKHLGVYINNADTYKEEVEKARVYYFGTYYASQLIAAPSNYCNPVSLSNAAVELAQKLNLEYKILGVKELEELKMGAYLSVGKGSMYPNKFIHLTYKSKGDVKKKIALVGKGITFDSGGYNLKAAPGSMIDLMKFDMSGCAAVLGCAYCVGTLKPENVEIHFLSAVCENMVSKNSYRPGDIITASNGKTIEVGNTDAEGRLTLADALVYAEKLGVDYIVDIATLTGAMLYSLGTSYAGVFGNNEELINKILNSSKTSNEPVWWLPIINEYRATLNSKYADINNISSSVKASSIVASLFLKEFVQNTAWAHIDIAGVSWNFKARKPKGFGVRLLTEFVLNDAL

[3] = cytotoxicity in HPDE-C7 cells, cell-based, fluorescence, HTS (AID 430); format: functional; conditions: Homo sapiens
[4] = cytotoxicity in KRAS-transformed pancreatic duct cells, primary screen, cell-based, fluorescence, HTS (AID 431); format: functional; conditions: Homo sapiens;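 also: cell line used: HPDE-C7K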
Bcl-2-related protein A1 [5] = molecular target: T5, Bcl-2-related protein A1 (Mus musculus, UniProt Q07440); test: Bfl-1 inhibitors, primary screen, biochemical, fluorescence polarization, FITC-Bid, mouse (AID 432)
T5 sequence (Q07440 whole entry): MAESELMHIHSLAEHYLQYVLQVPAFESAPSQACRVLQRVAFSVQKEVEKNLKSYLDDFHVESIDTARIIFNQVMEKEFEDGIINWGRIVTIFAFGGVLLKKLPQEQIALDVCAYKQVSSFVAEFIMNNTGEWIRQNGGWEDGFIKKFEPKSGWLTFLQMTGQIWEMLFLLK

CHO = test: cytotoxicity in TLR9-MyD88 CHO cells, dose response, cytotoxicity control for TLR9-MyD88 binding inhibitor project, cell-based, luminescence (AID 588339); format: functional, hamster; conditions: Cricetulus griseus;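 also: CHO cells stably coexpressing TLR9 and MyD88 fusions from primary screen; compound exposure lasted 48 hours before viability readout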
[6] = control 3'UTR Renilla luciferase suppression, dose response, counter-screen for Shn3 inhibitor project, cell-based, Clone20-Shn3RL, cherry-picked (AID 624133); format: functional
[7] = HepG2 cell cytotoxicity, dose response, cytotoxicity control for Shn3 inhibitor project, CellTiter-Glo, cherry-picked (AID 624134); format: functional, cell-based
Bcl-2-related protein A1 [8] = molecular target: T5, Bcl-2-related protein A1; test: Bfl-1 binding inhibitors, SAR follow-up, biochemical, fluorescence polarization (AID 1070)
[9] = molecular target: Glyceraldehyde-3-phosphate dehydrogenase (Homo sapiens, UniProt P04406)
Bcl-2-related protein A1 [10] = molecular target: T5, Bcl-2-related protein A1; test: Bfl-1 inhibitors blocking BH3 peptide binding, confirmation, biochemical, TR-FRET, mouse Bfl-1 (AID 621);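 also: TR-FRET binding of GST-Bfl-1 to FITC-labelled Bid peptide via terbium antibody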
Beta Lactamase = Beta Lactamase (Pseudomonas aeruginosa, UniProt Q932Y6); test: beta-lactamase reporter inhibitor potency, dose response, artefact control for TLR9-MyD88 binding inhibitor project, BLA reporter cells, FRET fluorescence (AID 588341); format: cell-based;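 also: cell based assay in CHO-K1 cells stably expressing beta-lactamase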
[11] = Shn3 3'UTR reporter inhibitors, dose response, cell-based, Clone20 osteoblasts, firefly luciferase, cherry-picked (AID 624132); format: functional;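 also: firefly luciferase luminescence from reporter carrying the Shn3 3'UTR in osteoblasts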
Steroidogenic factor 1 = Steroidogenic factor 1 (Homo sapiens, UniProt Q13285); test: Counterscreen for inverse agonists of the liver receptor homolog-1 (LRH-1; NR5A2): Luminescence-based cell-based high throughput dose response assay to identify inverse agonists of the Steroidogenic Factor 1 Nuclear Receptor (SF1; NR5A1).; format: functional
[12] = enhancers of respiration in Yfh1-depleted yeast, dose response, Friedreich's ataxia, plus single-dose screen (AID 1465); format: functional;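 also: yeast depleted of Yfh1p frataxin homolog grown on glycerol needing respiration; WST-1 tetrazolium dye reduction as measure of cellular dehydrogenase metabolic activity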
[13] = molecular target: Nuclear receptor subfamily 5 group A member 2 (Homo sapiens, UniProt O00482); format: functional, cell-based;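 also: HEK293T cells transfected with LRH-1 and a StAR promoter luciferase reporter; potency for inhibitors that lower LRH-1 driven reporter light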
[14] = StAR promoter reporter inhibition counter-screen, dose response, counter-screen for LRH-1 inverse agonist project, cell-based, luminescence, luciferase reporter (AID 651969); format: functional

Chain of Glyceraldehyde-3-phosphate dehydrogenase (P04406 whole entry): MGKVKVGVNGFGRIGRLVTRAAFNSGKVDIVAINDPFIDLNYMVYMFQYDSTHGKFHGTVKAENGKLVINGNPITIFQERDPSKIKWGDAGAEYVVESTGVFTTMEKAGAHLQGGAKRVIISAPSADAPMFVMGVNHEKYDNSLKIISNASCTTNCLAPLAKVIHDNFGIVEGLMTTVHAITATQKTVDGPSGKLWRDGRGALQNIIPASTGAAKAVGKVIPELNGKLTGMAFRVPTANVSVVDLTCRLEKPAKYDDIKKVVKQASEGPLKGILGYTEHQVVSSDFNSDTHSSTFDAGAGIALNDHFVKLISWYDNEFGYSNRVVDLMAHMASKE
Chain of Procathepsin L (P07711 whole entry): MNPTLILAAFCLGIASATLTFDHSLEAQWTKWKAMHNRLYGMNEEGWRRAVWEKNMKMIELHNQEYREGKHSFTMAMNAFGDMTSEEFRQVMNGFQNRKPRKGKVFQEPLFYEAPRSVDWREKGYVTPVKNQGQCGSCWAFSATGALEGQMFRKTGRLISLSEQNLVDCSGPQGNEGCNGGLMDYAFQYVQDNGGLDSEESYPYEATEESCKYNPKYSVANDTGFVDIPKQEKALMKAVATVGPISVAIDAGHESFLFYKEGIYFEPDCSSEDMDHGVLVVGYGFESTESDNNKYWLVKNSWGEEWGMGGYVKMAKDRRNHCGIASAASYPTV
Chain of Aspartyl aminopeptidase (Q8I2J3 whole entry): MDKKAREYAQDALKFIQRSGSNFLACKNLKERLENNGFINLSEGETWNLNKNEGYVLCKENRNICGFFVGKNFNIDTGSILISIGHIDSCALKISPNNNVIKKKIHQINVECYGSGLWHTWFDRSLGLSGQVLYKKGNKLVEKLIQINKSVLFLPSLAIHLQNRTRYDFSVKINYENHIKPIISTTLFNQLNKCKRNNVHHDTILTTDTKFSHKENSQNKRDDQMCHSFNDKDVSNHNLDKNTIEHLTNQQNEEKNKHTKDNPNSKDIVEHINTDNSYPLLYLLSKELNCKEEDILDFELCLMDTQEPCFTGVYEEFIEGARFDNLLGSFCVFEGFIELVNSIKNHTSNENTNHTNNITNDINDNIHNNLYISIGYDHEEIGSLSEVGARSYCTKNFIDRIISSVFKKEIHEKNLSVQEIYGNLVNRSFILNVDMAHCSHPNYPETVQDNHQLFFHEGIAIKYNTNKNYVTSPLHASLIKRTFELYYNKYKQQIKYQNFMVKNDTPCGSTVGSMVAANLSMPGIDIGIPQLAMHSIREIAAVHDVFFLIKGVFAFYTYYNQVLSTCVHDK
Chain of Nuclear receptor subfamily 5 group A member 2 (O00482 whole entry): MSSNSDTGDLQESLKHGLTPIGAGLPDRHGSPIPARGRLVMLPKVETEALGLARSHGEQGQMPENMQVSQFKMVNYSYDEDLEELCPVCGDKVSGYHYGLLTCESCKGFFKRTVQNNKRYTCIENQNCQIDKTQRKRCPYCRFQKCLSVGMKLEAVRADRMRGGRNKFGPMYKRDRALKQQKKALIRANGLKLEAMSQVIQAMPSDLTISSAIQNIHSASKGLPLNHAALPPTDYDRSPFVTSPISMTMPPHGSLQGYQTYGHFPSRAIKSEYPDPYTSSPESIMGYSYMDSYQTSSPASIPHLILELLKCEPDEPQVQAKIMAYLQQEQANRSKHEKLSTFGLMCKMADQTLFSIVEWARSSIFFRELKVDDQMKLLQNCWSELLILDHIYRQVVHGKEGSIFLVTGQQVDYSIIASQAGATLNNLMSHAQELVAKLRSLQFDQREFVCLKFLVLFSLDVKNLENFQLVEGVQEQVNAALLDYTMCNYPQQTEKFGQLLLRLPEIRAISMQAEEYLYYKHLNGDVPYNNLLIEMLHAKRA
Chain of Steroidogenic factor 1 (Q13285 whole entry): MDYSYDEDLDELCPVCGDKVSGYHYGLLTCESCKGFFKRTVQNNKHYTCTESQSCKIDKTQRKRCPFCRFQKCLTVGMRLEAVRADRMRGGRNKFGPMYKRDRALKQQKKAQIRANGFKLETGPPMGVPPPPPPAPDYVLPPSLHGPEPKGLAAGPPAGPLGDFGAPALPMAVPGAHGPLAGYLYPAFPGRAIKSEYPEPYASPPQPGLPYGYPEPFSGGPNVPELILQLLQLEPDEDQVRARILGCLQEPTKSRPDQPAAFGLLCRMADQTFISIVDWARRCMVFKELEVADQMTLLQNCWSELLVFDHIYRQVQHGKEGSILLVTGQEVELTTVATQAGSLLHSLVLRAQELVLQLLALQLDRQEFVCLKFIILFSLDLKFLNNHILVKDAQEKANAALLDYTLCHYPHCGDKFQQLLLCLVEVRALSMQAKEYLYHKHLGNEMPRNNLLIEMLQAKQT
Chain of Beta Lactamase (Q932Y6 whole entry): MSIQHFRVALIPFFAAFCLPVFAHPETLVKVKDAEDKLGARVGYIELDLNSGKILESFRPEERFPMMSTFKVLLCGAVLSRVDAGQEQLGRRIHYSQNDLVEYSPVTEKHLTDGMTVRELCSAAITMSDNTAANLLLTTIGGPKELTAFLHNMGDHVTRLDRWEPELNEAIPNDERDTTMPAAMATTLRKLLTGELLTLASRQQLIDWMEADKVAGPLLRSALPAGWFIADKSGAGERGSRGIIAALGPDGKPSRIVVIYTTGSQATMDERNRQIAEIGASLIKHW

With `Oc1cc(-c2ccc(Cl)c(Cl)c2)[nH]n1` the AC50 [1] was 2.01 µM (active), the EC50 [2] was > 260 µM (inactive) and the IC50 (Aspartyl aminopeptidase) was > 73.5 µM (not active). The EC50 (Protein RecA) was 0.852 µM (active), the IC50 (Procathepsin L) was > 59.6 µM (not active) and the IC50 (Leucine aminopeptidase) was < 1 µM (active).
In the case of `CCOC(=O)CS(=O)(=O)c1nc(-c2ccc(F)cc2)cc(C(F)(F)F)n1`, the AC50 [1] is reported as 3.35 µM (active), the EC50 [3] is reported as 9.29 µM (active) and the EC50 [4] is reported as 6.05 µM (active). For the same molecule, the EC50 (Protein RecA) was 3.3 µM (active), the IC50 (Bcl-2-related protein A1 [5]) was 3.78 µM (active) and the IC50 (CHO) was 2.88 µM (active). The AC50 [6] was 6.97 µM (active), the AC50 [7] was 20.9 µM (active) and the IC50 (Bcl-2-related protein A1 [8]) was 2.16 µM (active). For the same molecule, the IC50 [9] was > 100 µM (not active), the IC50 (Bcl-2-related protein A1 [10]) was 3.41 µM (active) and 1.46 µM (active) and the IC50 (Beta Lactamase) was 14.4 µM (inactive). For the same molecule, the AC50 [11] was 1.78 µM (active).
For `CC1CC(C)CN(c2cc(N(C)CCO)c([N+](=O)[O-])c3nonc23)C1` (stereo not drawn), the IC50 (Steroidogenic factor 1) was 2.15 µM (active), the EC50 [12] was > 100 µM (active) and the IC50 [13] was 6.21 µM (active). The IC50 [14] was 35.9 µM (inactive).

Source: ChEMBL document CHEMBL1201862, “PubChem BioAssay data set” (2004)
